In patent US12662485B2, “Substituted pyrazolo[4,3-D]pyrimidines as gut-targeted phosphodiesterase inhibitors” (priority 2020, dated 2026):
One block for each molecule: values may come before it.

Experiments:
[1] = mouse, in vivo
colon epithelium = test: Epithelial proliferation in the colon by flow cytometry using Ki67; format: in vivo; settings: mice, drug in drinking water 8 days; control 21%
Experimental: Toxicity studies and histology. […] The body weight was measured daily. After 8 days the animals were sacrificed and the epithelial proliferation in the colon was measured by flow cytometry using Ki67. Box plots show median and whiskers are min and max values. The p values were generated using a one-way ANOVA with Dunnett's multiple comparisons test. For FIGS. 5A and 5C, n=5.

PDE5 = molecular target: T1, PDE5 (Homo sapiens, UniProt O76074); test: Reporter cell assay: LS-174T cells expressing PKG2 and PDE5, low-dose linaclotide, phospho-VASP Western blot; format: cell-based; settings: LS-174T reporter cells
T1 construct: host or cells: LS-174T colon cancer reporter cell line
Description: Results shown are representative of at least 3 independent experiments.
Western blot and reporter cell lines. […] Results shown are representative of at least 3 independent experiments.

entry from the gut into plasma, dose curve [1]: increased dramatically in the plasma
Molecule: CCCc1nn(C)c2c(=O)[nH]c(-c3cc(S(=O)(=O)N4CCNCC4)ccc3OCC)nc12 [desmethyl-sildenafil, reference compound]

Molecule: CCCc1nn(C)c2c(=O)[nH]c(-c3cc(S(=O)(=O)N4CCN(C)CC4)ccc3OCC)nc12 [sildenafil, reference compound]
total Ki67 positive cells in colon epithelium (colon epithelium): 15%

potency of PDE5 inhibitor activity relative to sildenafil (VASP phosphorylation) (PDE5): equally potent as the parent compound
Molecule: acetyl-sildenafil
